Columns and labels:
A549 human lung tumors = assay: Evaluation of ED50 (lung section and tumor regression studies); assay type: in vivo, nude mice; conditions: Mus musculus, oral route
Method: ED50 values were evaluated based on the lung section and tumor regression studies.

hERG = hERG (Homo sapiens, UniProt Q12809); assay: hERG Ikr (tail) current, whole cell patch-clamp in CHO cells; conditions: 10 μM
hERG, sequence (Q12809 whole entry): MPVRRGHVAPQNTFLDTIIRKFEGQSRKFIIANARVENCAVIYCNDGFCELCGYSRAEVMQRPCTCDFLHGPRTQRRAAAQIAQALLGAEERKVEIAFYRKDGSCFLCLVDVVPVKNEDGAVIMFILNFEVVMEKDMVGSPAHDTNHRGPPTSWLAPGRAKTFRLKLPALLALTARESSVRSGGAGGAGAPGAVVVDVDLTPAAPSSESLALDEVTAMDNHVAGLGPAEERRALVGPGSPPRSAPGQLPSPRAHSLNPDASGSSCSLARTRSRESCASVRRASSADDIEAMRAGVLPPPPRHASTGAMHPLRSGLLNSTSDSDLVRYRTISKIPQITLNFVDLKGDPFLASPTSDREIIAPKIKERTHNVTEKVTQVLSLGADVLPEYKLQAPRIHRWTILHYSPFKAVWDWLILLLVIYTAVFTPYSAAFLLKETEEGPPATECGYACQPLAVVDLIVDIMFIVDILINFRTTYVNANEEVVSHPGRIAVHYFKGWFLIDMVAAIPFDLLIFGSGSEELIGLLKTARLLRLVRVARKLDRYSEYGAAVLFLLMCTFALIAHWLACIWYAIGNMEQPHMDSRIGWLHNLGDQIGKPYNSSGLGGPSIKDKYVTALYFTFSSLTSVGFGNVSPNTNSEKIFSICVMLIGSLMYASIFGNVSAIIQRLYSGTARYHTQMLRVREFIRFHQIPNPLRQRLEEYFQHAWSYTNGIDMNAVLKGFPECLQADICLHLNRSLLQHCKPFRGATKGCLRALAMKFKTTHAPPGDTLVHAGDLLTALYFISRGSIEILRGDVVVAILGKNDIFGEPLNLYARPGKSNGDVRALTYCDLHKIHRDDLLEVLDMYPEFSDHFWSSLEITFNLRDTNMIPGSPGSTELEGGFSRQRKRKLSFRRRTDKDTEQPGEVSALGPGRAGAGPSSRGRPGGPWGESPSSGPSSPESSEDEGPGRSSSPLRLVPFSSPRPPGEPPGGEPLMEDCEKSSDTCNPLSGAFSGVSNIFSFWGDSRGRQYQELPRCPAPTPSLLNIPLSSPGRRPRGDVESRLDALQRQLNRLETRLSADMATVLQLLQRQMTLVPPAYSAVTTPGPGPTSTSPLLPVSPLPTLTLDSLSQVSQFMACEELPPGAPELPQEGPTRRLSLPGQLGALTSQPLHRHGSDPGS

## C#Cc1cccc(Nc2ncnc3cc(OC)c(OCCCN4CCOCC4)cc23)c1 [NRC-2694, N-(3-ethynylphenyl)-7-methoxy-6-[3-(4-morpholinyl)propoxy]-4-quinazolinamine]
A549 human lung tumors
  ED50: 6.3 mg/kg
hERG
  inhibition of hERG current: ~42%

Source: US8921362B2, “6,7-dialkoxy quinazoline derivatives and methods of treating drug resistant and other tumors” (Natco Pharma Limited, priority 2008, dated 2014)
